{"source": "patent US20060222628A1", "about": "“Gallium complexes of 3-hydroxy-4-pyrones to treat infection by intracellular prokaryotes and DNA viruses” (priority 1999, published 2006)", "key": {"[1]": {"type": "physicochemical", "experimental": "The material forms white to pale beige monoclinic crystals with unit cell parameters of about a=7.899(1)Å, b=8.765(1)Å, c=31.626(2)Å, beta=103.253(7) degrees, V=2131 Å^3, based on powder x-ray diffraction analysis. The solubility of this compound is measured as about 5 millimolar in distilled deionized water at 23° C. Crystallization from other solvents or under other conditions may produce other crystal structures. Under some conditions, water or other solvents may also be incorporated into the structure. […] About 5.5 grams of powdered anhydrous sodium carbonate are added, and stirring continues for additional 12 minutes. […] The remaining crystalline solid is the 3:1 maltol gallium composition. […] The solubility of this composition is measured as about 24 millimolar in distilled deionized water at 23° C."}, "[2]": {"conditions": "in vivo, po; cited from earlier work"}, "Varicella-Zoster (VZV)": {"tested_on": "Varicella-Zoster (VZV)", "assay": "Clinical evaluation for Varicella-Zoster (VZV) infection and recurrences", "type": "in vivo, human", "experimental": "Gallium maltolate is evaluated clinically for efficacy in treating Varicella-Zoster (VZV) infection in HIV negative individuals who show no signs of immune dysfunction of any type. Patients with VZV infection are treated once per day with gelatin capsules containing gallium maltolate. The population of patients is divided into subpopulation with recurrent VZV (shingles) and acute VZV infections (chickenpox) respectively. These different subpopulations are divided randomly and blindly into two approximately equal groups with four approximately equal subgroups that receive either 0 (placebo), 250, 500, or 750 mg/day gallium maltolate for about six months. The first group of each subpopulation receive the gallium maltolate dose together with 800 mg acyclovir five times per day. The second group of each subpopulation receive the gallium maltolate dose together with 500 mg ganciclovir twice per day. Patients are medically monitored for resolution reoccurrences of latent VZV infection, or medical symptoms of acute VZV infection throughout the study, with the monitoring including in situ hybridization of skin lesions for VZV DNA. In addition for the acute VZV infected group, blood serum samples are obtained from the patients at days 1-5 and are assayed for VZV particles by routine methods and for VZV DNA (viral load assay) using PCR."}, "Epstein-Barr Virus (EBV)": {"tested_on": "Epstein-Barr Virus (EBV)", "assay": "Clinical evaluation for Epstein-Barr virus (EBV) infection", "type": "in vivo, human", "experimental": "Some of the methods employed in the clinical studies discussed in the following references are used in the evaluation: Schneider et al. (2000), “Regression of Epstein-Barr virus-associated lymphoproliferative disorders in patients with acquired immunodeficiency syndrome during therapy with foscarnet,” Ann. Hematol. 79(4):214-6. Patients with EBV infection are treated once per day with gelatin capsules containing gallium maltolate. The patients are divided randomly and blindly into two approximately equal groups with four approximately equal subgroups that receive either 0 (placebo), 250, 500, or 750 mg/day gallium maltolate for about six months. The first group receive the gallium maltolate dose together with 500 mg ganciclovir twice per day. The second group receive the gallium maltolate dose together with 5500 mg foscarnet, IV infusion over 1.5-2 hr., twice per day. Patients are medically monitored for resolution of EBV infection, with histopathologic examination of hematologic smears to assess characteristic cells an lymphocyte levels. In addition blood serum samples are obtained from the patients at days 1, 3, 7, 10, 14, 17, 21, 24 and 28 and are assayed for EBV particles by routine methods and for EBV DNA (viral load assay) using PCR."}, "[3]": {"assay": "Stability of the 3:1 complex in aqueous solutions at various pH by ultraviolet spectroscopy", "type": "physicochemical", "conditions": "1.0×10^−2 M in water, 25° C.", "experimental": "The pH was adjusted by adding either 1N HCl or 1N Na2CO3. The stability of the complex was determined using ultraviolet spectroscopy over the region 200-450 nm at 25° C. Several absorption peaks are observed in this range, including those at about 212-217 nm, 248 nm, 273 nm, 318 nm, and 385 nm. An isobesic point occurs over much of the pH range at about 290 nm. In the very dilute solutions (2.5×10^−6 M), the neutral 3:1 complex appears to be stable from about pH 4.5 to 9.5. For the less dilute solutions (1.0×10^−2 M), the determination was more difficult due to the very high absorbance."}, "HIV infection": {"tested_on": "HIV infection", "assay": "Clinical evaluation for treating HIV infection", "type": "in vivo, human", "conditions": "250, 500 or 750 mg/day oral about six months, with AZT, ddI and indinavir", "experimental": "Patients with HIV infection are treated once per day with gelatin capsules containing 250 mg gallium maltolate. Patients are divided randomly and blindly into approximately equal groups that receive either 0 (placebo), 250, 500, or 750 mg/day gallium maltolate for about six months, together with 300 mg AZT twice per day, 200 mg ddI twice per day, and 800 mg indinavir every eight hours. Patients are medically monitored for symptoms of HIV infection throughout the study. In addition, blood serum samples are obtained from the patients at days 0, 30, 90, and 180 and are assayed for CD4 T-cell count by routine methods and for HIV-1 RNA (viral load assay) using the Roche […] ultra-assay (Sun et al. (1998), “Ultrasensitive reverse transcription-PCR assay for quantitation of human immunodeficiency virus type 1 RNA in plasma,” J. Clin. Microbiol. 36(10):2964-2969)."}, "HIV": {"tested_on": "HIV", "assay": "Clinical evaluation for prevention of CMV disease in HIV patients: HIV", "type": "in vivo", "conditions": "CMV prevention study; MacSynergy II", "method": "Patients are treated once per day with gelatin capsules containing gallium maltolate. The population of patients with CMV (almost universal, seropositive or culture positive patients) and HIV infection are first divided into two subpopulations groups based on CD4+ counts (above 350/mm^3 and below 350/mm^3). The subpopulations are randomly and blindly divided into two groups each randomly subdivided into subgroups for a total of sixteen approximately equal subgroups that receive either 0 (placebo), 250, 500, or 750 mg/day gallium maltolate for about six months. All subgroups receive the identical regimen of non-gallium antiretroviral therapy as described in Example 5 (a HAART regime). […] In each subpopulation, the first group's four subgroups from each subpopulation (above 350/mm^3 and below 350/mm^3) additionally receive the gallium maltolate dose together with 5500 mg foscarnet, IV infusion over 1.5-2 hr., twice per day. In each subpopulation, the second group's four subgroups receive the gallium maltolate dose together with 1000 mg ganciclovir four times per day. Patients are monitored for HIV disease precisely as described in Example 5. Patients are also medically monitored for CMV disease, including testing and examination for medical symptoms of CMV disease, such as CMV retinitis, throughout the study. Any mucosal or skin lesions are studied by in situ hybridization for CMV DNA. […]"}}}
{"smiles": "Cc1occc(=O)c1[O-].Cc1occc(=O)c1[O-].Cc1occc(=O)c1[O-].[Ga+3]", "note": "[gallium maltolate, tris(3-hydroxy-2-methyl-4H-pyran-4-onato)gallium]", "values": [{"measurement": "Solubility", "setting": "[1]", "result": "about 24 millimolar"}, {"measurement": "Renotoxicity or nephrotoxicity", "setting": "[2]", "result": "no renotoxicity or nephrotoxicity has been observed"}, {"measurement": "Efficacy in treating VZV infection", "setting": "Varicella-Zoster (VZV); HIV negative patients, 250-750 mg/day oral with acyclovir or ganciclovir", "result": "effective for treating VZV infection, including recurrent sores as well as more serious systemic disease"}, {"measurement": "Efficacy of combination with acyclovir or ganciclovir versus single agents", "setting": "Varicella-Zoster (VZV); VZV", "result": "more effective than either agent alone"}, {"measurement": "Synergy with nucleoside analogs", "setting": "Varicella-Zoster (VZV); VZV, MacSynergy II", "result": "synergy of gallium with both nucleoside analogs is also demonstrated"}, {"measurement": "Efficacy of combination with ganciclovir or foscarnet versus single agents", "setting": "Epstein-Barr Virus (EBV); EBV", "result": "more effective than either agent alone"}, {"measurement": "Synergy with nucleoside analogs", "setting": "Epstein-Barr Virus (EBV); EBV, MacSynergy II", "result": "synergy of gallium with both nucleoside analogs is also demonstrated"}, {"measurement": "Efficacy in treating EBV infection", "setting": "Epstein-Barr Virus (EBV); HIV negative patients, 250-750 mg/day oral with ganciclovir or foscarnet", "result": "effective for treating EBV infection, including recurrent sores as well as more serious systemic disease"}, {"measurement": "Stability region (pH)", "setting": "[3]", "result": "very similar to that of the highly dilute solution, possibly slightly wider"}, {"measurement": "Efficacy in treating HIV infection", "setting": "HIV infection", "result": "effective for treating HIV infection"}, {"measurement": "Synergy with the HAART regime on HIV infection", "setting": "HIV", "result": "synergistic with the HAART regime in their effects upon the HIV infection"}]}
